Consider four compounds from US20230364079A1, “COMPOUND AS BRAIN-PERMEABLE BTK OR HER2 INHIBITOR, PREPARATION METHOD THEREFOR, AND USE THEREOF” (CHENGDU HYPERWAY PHARMACEUTICALS CO., LTD., priority 2020, published 2023).

Data set [1] concerns the target BTK wild-type kinase (Homo sapiens (Human), UniProt Q06187). The data set can be described thus: BTK kinase activity inhibition test in vitro (Caliper EZ Reader). It counts as biochemical. The method, boiled down: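 Compound (10 mM DMSO stock) preincubated with kinase 10 min at room temperature, then ATP plus kinase substrate 2 added, 10 min reaction at room temperature before stop. Substrate conversion read by Caliper mobility shift; inhibition normalised to no-enzyme and no-compound controls, IC50 by variable-slope log(inhibitor) fit.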

Data set [2] addresses BTK mutation-type C481S kinase (Homo sapiens (Human), UniProt Q06187, C481S). Briefly: BTK-C481S kinase activity inhibition test in vitro (Caliper EZ Reader). The format is biochemical. On the procedure: In the tests on the activity of inhibiting BTK and HER2 kinase in vitro in the examples of the present disclosure, powder of the compound was dissolved in 100% DMSO to prepare a 10 mM stock solution and stored at-20° C. in the dark. […] In addition, the compounds were subjected to experiments such as liver microsome metabolic stability, rat PK, rat brain penetration rate, and drug efficacy model in the examples of the present disclosure.
Compound powders were dissolved in 100% DMSO to make 10 mM stock solutions, which were stored at -20° C. in the dark.
2: Kinase Reaction Process
(1) Preparation of 1 × Kinase buffer.
(5) After centrifugation at 1000 rpm for 30 seconds, the reaction plate was shaken to mix well and incubated at room temperature for 10 min.
(6) A 5/3-fold final concentration of a mixed solution of ATP and Kinase substrate 2 was prepared with 1 × Kinase buffer.
(7) 15 µL of the mixed solution of ATP and substrate with 5/3-fold final concentration was added to start the reaction.
(8) The 384-well plate was centrifuged at 1000 rpm for 30 seconds, shaken to mix well, and incubated at room temperature for 10 min.
(9) 30 µL of a stop solution was added to stop the kinase reaction, and after centrifugation at 1000 rpm for 30 seconds, the plate was shaken to mix well;
(10) The conversion rate was read with Caliper EZ Reader.
where Conversion%_sample indicates the conversion rate reading of the sample; Conversion%_min is the average reading of the negative control wells, representing the conversion rate reading of the wells without enzyme activity; Conversion%_max is the average reading of the ratio of the positive control wells, representing the conversion rate reading of the wells without compound inhibition.
Dose-Response Curve Fitting
With the log value of the concentration as the X-axis, and the percentage inhibition rate as the Y-axis, the dose-effect curve was fitted using the log(inhibitor) vs. response-Variable slope of the analysis software GraphPad Prism 5, so as to determine the IC50 value of each compound on the enzyme activity.
The calculation formula was: […]

Data set [3] is described as follows: Liver microsome metabolic stability test, human. It counts as in vitro ADME. Particulars: for half-life: liver microsomes, 0.5 mg/mL protein, read-out: T½. How it is done: (§1) 1: To the sample wells of T0, T5, T10, T20, T30, T60 and NCF60, 10 µL of the test or reference working solution and 80 µL of microsome working solution (hepatic microsome with a protein concentration of 0.5 mg/mL) were added, and to Blank60 well, only the microsome working solution was added. Then samples of the Blank60, T5, T10, T20, T30 and T60 other than T0 and NCF60 were placed in a 37° C. water bath and pre-incubated for about 10 min.
(§2) 2: To the T0 sample well, 300 µL of stop solution (containing 200 ng/mL tolbutamide and 200 ng/mL labetalol in acetonitrile solution) was added first, followed by 10 µL of NADPH regeneration system working solution.
(§3) 3: After the pre-incubation of Blank60, T5, T10, T20, T30 and T60 incubation plates, 10 µL of NADPH regeneration system working solution was added to each sample well to start the reaction, and 10 µL of 100 mM potassium phosphate buffer was added to the NCF60 sample well.
(§4) 4: After incubation for an appropriate time (such as 5, 10, 20, 30 and 60 min), to each test sample well and control well of the Blank60, T5, T10, T20, T30, T60 and NCF60 plates, 300 µL of stop solution was added to terminate the reaction.
(§5) 5: All sample plates were shaken to mix well and centrifuged at 4000 rpm for 20 min, and 100 µL of the supernatant of the test sample or control sample was taken and diluted with 300 µL of pure water for LC-MS/MS analysis.
(§6) 6: Data analysis: T½ and CLint(mic) (µL/min/mg) values were calculated according to the first-order elimination kinetics. The first-order elimination kinetics equation was: […]

A short description of data set [4]: Liver microsome metabolic stability test, rat. It counts as in vitro ADME. Particulars: for half-life: liver microsomes, 0.5 mg/mL protein, read-out: T½. On the procedure:
as §1, §2, §3, §4, §5, §6

Data set [5] is described as follows: Pharmacokinetic test, oral, SD rats. It counts as in vivo. Particulars: oral 10 mg/kg, plasma; for AUC(0-inf) / Cmax / half-life: rat; for Cmax: read-out: Cmax; for half-life: read-out: T½ (converted). The method, boiled down:
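Male/female status unstated; SD rats (3 per group) dosed orally at 10 mg/kg after overnight fast, refed 4 h post-dose. Plasma from serial blood draws stored at -20° C, protein-precipitated with internal standard solution and quantified by LC-MS/MS.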

Data set [6] relates to TMD8 mouse subcutaneous xenograft tumor. The data set can be described thus: TMD8 pharmacodynamic model test (mouse subcutaneous xenograft tumor). It counts as in vivo. The settings on record: for inhibitory effect against the tumor compared with ARQ-531 and ibrutinib: same dose of 10 mg/kg, FIG. 1. On the procedure:
Test Example 7: TMD8 Pharmacodynamic Model Test
Human diffuse large B-cell lymphoma TMD8 cells were monolayer-cultured in vitro in RPMI1640 medium with 10% fetal bovine serum, 100 U/mL penicillin and 100 µg/mL streptomycin, in a 37° C., 5% CO2 incubator. Routine digestion with trypsin-EDTA was performed twice a week for passaging. When the cell density was 80%-90% and the number reached the requirement, cells were harvested, counted and inoculated. 0.2 ml (1×10^7 cells) of TMD8 cells (added with matrigel at a volume ratio of 1:1) were subcutaneously inoculated on the right back of each mouse. The mice were administered in groups when the average tumor volume reached about 137 mm^3. Tumor diameters were measured twice a week with vernier calipers. The tumor volume was calculated by the formula V = 0.5 a × b^2, where a and b represent the long and short diameters of the tumor, respectively.

Data set [7] deals with DOHH-2-luc tumor cells in the mouse brain. Briefly: DOHH-2-Luc intracerebral tumor drug efficacy model test. The format is in vivo. Particulars: for tumor size in the brain by fluorescence image: DOHH-2-Luc intracerebral model, same dose, FIG. 4. On the procedure:
Test Example 8: DOHH-2-Luc Intracerebral Tumor Drug Efficacy Model Test
DOHH-2-luc tumor cells were cultured in vitro with RPMI 1640 medium containing 10% fetal bovine serum and 500 ng/mL puromycin in a 37° C., 5% CO2 incubator. […] Tumor cells in logarithmic growth phase were used for inoculation of tumors in vivo.
2. Inoculation of Tumor Cell and Grouping
After the animal was anesthetized by intramuscular injection of Zoletil, it was fixed on the operating table in a prone position. The skin on the top of the head was disinfected with iodine and 75% alcohol respectively, and the skin was cut about 0.5 cm along the midline of the head to expose the coronal and sagittal lines. Being located about 0.5-1.0 mm above the coronal line and about 2 mm to the right of the sagittal line by using a brain locator, a hole was drilled with a 1 mL syringe needle. The micro-injector was inserted vertically to a depth of 3 mm at the location, slowly (about 1 min) injected with 3 × 10^5 DOHH-2-luc tumor cells /2 µL suspension and kept for 1 min. After pulling out the needle, the needle hole was quickly sealed with bone wax, and the wound was sutured with a stapler. About the 7th day after tumor inoculation, the animals were randomly divided into 5 groups according to the body weight of the animals and the optical signal intensity of the tumor site, with 5 animals in each group.
The mice were imaged 1-2 times a week according to their state using the small animal in vivo imaging system IVIS Lumina III (Perkin Elmer). The bioluminescence imaging (BLI, unit: photons/s) signal intensity at the tumor cell inoculation site of mouse was monitored as the main indicator for evaluating tumor growth and drug efficacy. The specific operation is as follows:
The mice were intraperitoneally injected with D-luciferin (15 mg/mL, 5 µL/g according to the body weight of the experimental animal), and then inhaled anesthetized with 1%-2% isoflurane. 10 min after the injection of D-luciferin, the animals were imaged with IVIS Lumina III. The data were analyzed and processed using Living Image software (Perkin Elmer), and the optical signal intensity in ROI (regions of interest) of each animal was calculated.

The subject of data set [8] is relapsed/refractory central nervous system lymphoma. The settings on record: patients, cited from earlier work.

Like-named read-outs stand apart in the source and are kept apart here.

Chain of BTK mutation-type C481S kinase (Q06187 whole entry C481S): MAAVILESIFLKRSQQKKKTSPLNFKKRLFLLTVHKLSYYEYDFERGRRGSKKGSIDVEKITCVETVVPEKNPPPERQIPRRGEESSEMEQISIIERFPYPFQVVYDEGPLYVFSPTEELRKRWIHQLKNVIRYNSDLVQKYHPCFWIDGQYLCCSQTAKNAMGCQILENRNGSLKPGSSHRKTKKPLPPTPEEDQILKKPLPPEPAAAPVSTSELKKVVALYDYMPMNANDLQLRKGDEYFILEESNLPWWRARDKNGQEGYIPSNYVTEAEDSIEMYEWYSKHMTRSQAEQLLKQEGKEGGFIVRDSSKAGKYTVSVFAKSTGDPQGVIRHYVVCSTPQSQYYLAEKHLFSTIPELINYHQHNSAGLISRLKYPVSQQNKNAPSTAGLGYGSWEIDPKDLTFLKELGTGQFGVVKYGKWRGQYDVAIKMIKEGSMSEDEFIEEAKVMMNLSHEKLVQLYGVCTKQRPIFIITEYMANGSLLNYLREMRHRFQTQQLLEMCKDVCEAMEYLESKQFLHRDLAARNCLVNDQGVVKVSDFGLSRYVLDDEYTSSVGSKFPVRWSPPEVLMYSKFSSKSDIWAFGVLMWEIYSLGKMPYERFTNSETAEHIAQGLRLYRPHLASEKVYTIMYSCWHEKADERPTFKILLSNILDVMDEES
Chain of BTK wild-type kinase (Q06187 whole entry): as the sequence (Q06187 whole entry C481S) above, with S481C counted along it

`COc1cccc(Oc2ccc(-c3nc(C4CCC(CO)OC4)n4ccnc(N)c34)cc2)c1C#N` (single isomer, unassigned) [Compound 89-P1] came in with an IC50 in data set [1] below 5 nM. Further, the IC50 in data set [2] was below 5 nM. In data set [3], the “%Remaining (60 min)” value was 100.4% and the half-life is above 2.42 h. Also, in data set [4], the “%Remaining (60 min)” value is listed as 61.0% and the half-life came out at 1.47 h. In addition, in data set [5], the “Cl” value turned out to be 20.53 mL/min/kg, the AUC(0-inf) was determined as 8120 ng·h/mL, the Cmax was 2980 ng/mL and the half-life is 1.16 h. Besides, the “inhibitory effect against the tumor compared with ARQ-531 and ibrutinib” value in data set [6] was “significantly better inhibitory effect against the tumor”.

Regarding `Nc1nccn2c(C34CCC(CO)(CC3)OC4)nc(-c3ccc(C(=O)Nc4cc(C(F)(F)F)ccn4)cc3)c12` [Compound 118], the IC50 in data set [1] is below 5 nM. In data set [2], the IC50 is below 5 nM. Besides, in data set [3], the “%Remaining (60 min)” value is 77.4% and the half-life is above 2.42 h. Also, in data set [4], the “%Remaining (60 min)” value is given as 64.1% and the half-life is 1.69 h. In data set [5], the “Cl” value is 0.8 mL/min/kg, the AUC(0-inf) amounted to 211000 ng·h/mL, the Cmax amounted to 25700 ng/mL and the half-life is 3.35 h. Besides, the “inhibitory effect against the tumor compared with ARQ-531 and ibrutinib” value in data set [6] is listed as “significantly better inhibitory effect against the tumor”.

`Nc1nccn2c(C34CCC(CO)(CC3)OC4)nc(-c3ccc(C(F)(F)c4ccccc4)cc3)c12` [Compound 125] showed an IC50 in data set [1] of 5 to 20 nM. This compound gave an IC50 in data set [2] below 5 nM. For the same compound, in data set [3], the “%Remaining (60 min)” value was found to be 61.2% and the half-life was 1.58 h. In addition, in data set [4], the “%Remaining (60 min)” value is 49% and the half-life came out at 1.06 h. In addition, in data set [5], the “Cl” value was 17.42 mL/min/kg, the AUC(0-inf) is 8860 ng·h/mL, the Cmax was found to be 1180 ng/mL and the half-life was 4.19 h. The “inhibitory effect against the tumor compared with Tirabrutinib” value in data set [6] (same dose of 20 mg/kg, FIG. 2) was “significantly better inhibitory effect against the tumor”. For the same compound, the “inhibitory effect against the tumor compared with Tirabrutinib” value in data set [7] (DOHH2 tumor model in the mouse brain, same dose of 30 mg/kg (BID), FIG. 3) is “significantly better inhibitory effect against the tumor”. In addition, the “tumor size in the brain by fluorescence image” value in data set [7] is “very good inhibitory effect against the tumor”. The side effects result in data set [7] (mouse, 30 mg/kg (BID), after 21 days of administration) was “no side effects”.

With `CC#CC(=O)N1CC[C@@H](n2c(=O)n(-c3ccc(Oc4ccccc4)cc3)c3c(N)ncnc32)C1` [Tirabrutinib, reference compound], in data set [3], the “%Remaining (60 min)” value was found to be 66.3% and the half-life came to 1.77 h. Besides, in data set [4], the “%Remaining (60 min)” value is listed as 37.0% and the half-life came to 0.702 h. For the same compound, in data set [5], the “Cl” value was determined as 189.92 mL/min/kg, the AUC(0-inf) stood at 965 ng·h/mL, the Cmax was determined as 920 ng/mL and the half-life was 0.33 h. Also, the “tumor size in the brain by fluorescence image” value in data set [7] is “large red areas”. In data set [8] (320 mg QD), the ORR is on record as 60% and the PFS is given as 2.1 months. Also, in data set [8] (480 mg QD (fasting condition)), the ORR was 52.9% and the PFS is 5.8 months. In addition, in data set [8] (480 mg QD), the ORR is 100% and the PFS was 11.1 months.
